In patent US20210253598A1, “ARYL ANNULATED MACROCYCLIC INDOLE DERIVATIVES” (priority 2017, published 2021):
Where a name gives a salt, the structure may show the parent alone. Read-outs that look alike come from different tables or passages of the source.

Key:
MCL1 protein = molecular target: T1, MCL1 protein (Homo sapiens, UniProt Q07820); test: PIxEL: protein-protein interaction in permeabilized cells by ELISA (Assay 5); type: cell-based; settings: permeabilized RKO cells, biotin-BIM BH3 peptide 0.2 μM, serum free
T1 construct: this assay uses full length endogenous MCL1 protein at mitochondria outer membrane; endogenous in cells; host or cells: RKO colon cancer cell line
Description: PIxEL: Protein-Protein Interaction in Permeabilized Cells by ELISA
Most MCL1 protein molecules are localized at the mitochondria outer membrane and sequester pro-apoptotic proteins through binding of their BCL2 homology domain 3 (BH3 domain). MEB buffer (150 mM mannitol, 10 mM HEPES pH 7.5, 50 mM KCl, 20 μM EDTA, 20 μM EGTA, 5 mM potassium succinate, 0.1% protease-free BSA (SIGMA) with low dose digitonin (0.002%) permeabilizes plasma membrane while leaves live mitochondria, where MCL1 maintains its native localization and conformation. Unlike biophysical assays (e.g. TR-FRET) that use truncated recombinant MCL1 protein, this assay uses full length endogenous MCL1 protein at mitochondria outer membrane. It measures the interaction between MCL1 protein and biotinylated BIM BH3 peptide. Compounds can compete with BIM BH3 peptide to bind to MCL1 protein.
On day 1, RKO colon cancer cell line cells were plated at 0.8 million cells/ml, 100 μl/well in 96-well flat bottom TC plates (Corning). […] Each plate was tapped to make sure liquid covering entire bottom of wells and incubate at 37° C. overnight.
On the second day, MCL1 antibody was washed from ELISA plate. 250 μl Odyssey® Blocking Buffer (PBS) (Li-Cor) was added to each well, incubated at room temperature for at least 1 hour, then washed once with 250 μl 1×PBST. Plates with RKO cells were gently washed once with 100 μl/well PBS, once with 100 μl/well MEB buffer without digitonin, then 100 μl of MEB buffer with 0.002% digitonin was gently added to each well. Compounds were added with HP Tecan compound dispenser in 3-fold dilution series, highest dose 30 μM, 10-dose per compound in quadruplicates. Biotin-BIM peptide (synthesized by 21st Century) was added with HP Tecan compound dispenser at 0.2 μM immediately after the addition of compounds. Plates were rocked for 1 h at room temperature. Then MEB buffer was aspirated and 50 μl of CHAPS buffer (50 mM Tris-Cl, pH 7.4, 150 mM NaCl, 1% CHAPS, 1 mM EDTA, 1 mM EGTA, complete protease inhibitors (Roche), PhosSTOP (Roche)) was added to each well. Plates were rocked for 1 hour at 4° C., then 45 μl cell lysate from each well were transferred to ELISA plates coated with MCL1 antibody. Plates were incubated overnight in the cold room with rocking.
On the third day, ELISA plates were washed once with 250 μl 1×PBST. Streptavidin-poly-HRP (Thermo Fisher Scientific) was diluted to 20 ng/ml in Odyssey blocking buffer plus 0.05% Triton-100, and 100 μl was added to each well of the ELISA plate. Plates were incubated at RT for 1 hour with rocking, then washed with 100 μL 1×PBST for 3 times. Each SuperSignal ELISA Femto Maximum Sensitivity substrate was added to a 50-ml tube and mixed, then 100 μl of mixed substrate was added to each well. Plates were shaken for 1 minute then luminescence was measured by Envision plate reader […]. Signal of each well were normalized by no-compound control and no-cell control. IC50 was calculated using Graphic Pad PRISM software.

BCL-2 = BCL-2 (Homo sapiens, UniProt P10415); test: Protein-protein interaction assay BCL-2/Bad BH3 peptide, TR-FRET (BCL-2 assay, Assay 3); type: binding; settings: His-BCL-2 / Bad BH3 peptide, median
SUDHL10 [1] = test: Induction of caspase-3/7 activity in SUDHL10 cells (Assay 4); type: cell-based
Method in brief: (§1)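 DLBCL lines SUDHL5 and SUDHL10 were treated with compound for 3 h at 37 °C. Caspase-3/7 activity was then read by Caspase-Glo 3/7 luminescence after 1 h at 37 °C. Medium-only background was subtracted and values were normalized to the mean of DMSO-treated cells.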

SUDHL5 [2] = test: Induction of caspase-3/7 activity in SUDHL5 cells (Assay 4); type: cell-based
Method in brief: as §1

SUDHL5 [3] = test: Induction of cytotoxicity in SUDHL5 cells, CellTiter-Glo (Assay 6); type: cell-based; settings: SUDHL5, 5 hours incubation, median, read-out: Cytotox SUDHL5 [M] (median)
Method in brief: (§2)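 Cells plated and held overnight at 37° C in a humidified incubator, then compound-treated for 5 hours at 37° C. Viability read by CellTiter-Glo luminescence after 15 minutes shaking at room temperature; cell-free medium served as control.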

SUDHL10 [4] = test: Induction of cytotoxicity in SUDHL10 cells, CellTiter-Glo (Assay 6); type: cell-based; settings: SUDHL10, 5 hours incubation, median, read-out: Cytotox SUDHL10 [M] (median)
Method in brief: as §2

[5] = median, read-out: PIxEL [M] (median)
[6] = SUDHL10, 3 hours treatment, Caspase-Glo 3/7, median, read-out: Caspase SUDHL10 [M] (median)
[7] = SUDHL5, 3 hours treatment, Caspase-Glo 3/7, median, read-out: Caspase SUDHL5 [M] (median)
[8] = Homo sapiens, SU-DHL10, 3 h, SUDHL10, 3 hours treatment, Caspase-Glo 3/7, median, read-out: Caspase SUDHL10 [M] (median)
[9] = Homo sapiens, SU-DHL-5, 3 h, SUDHL5, 3 hours treatment, Caspase-Glo 3/7, median, read-out: Caspase SUDHL5 [M] (median)
[10] = read-out: Caspase SUDHL10 [M] (median), SUDHL10, 3 hours treatment, Caspase-Glo 3/7

T1 sequence (Q07820 whole entry): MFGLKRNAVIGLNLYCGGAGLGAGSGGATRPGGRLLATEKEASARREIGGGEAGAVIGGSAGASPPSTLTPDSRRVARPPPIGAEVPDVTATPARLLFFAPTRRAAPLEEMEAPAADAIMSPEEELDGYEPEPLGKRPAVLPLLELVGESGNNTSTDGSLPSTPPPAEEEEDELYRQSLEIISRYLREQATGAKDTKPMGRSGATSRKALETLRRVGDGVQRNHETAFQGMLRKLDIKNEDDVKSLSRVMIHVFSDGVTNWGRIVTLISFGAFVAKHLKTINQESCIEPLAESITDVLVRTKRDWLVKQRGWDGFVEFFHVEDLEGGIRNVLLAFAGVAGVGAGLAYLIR
Chain of BCL-2 (P10415 1-211): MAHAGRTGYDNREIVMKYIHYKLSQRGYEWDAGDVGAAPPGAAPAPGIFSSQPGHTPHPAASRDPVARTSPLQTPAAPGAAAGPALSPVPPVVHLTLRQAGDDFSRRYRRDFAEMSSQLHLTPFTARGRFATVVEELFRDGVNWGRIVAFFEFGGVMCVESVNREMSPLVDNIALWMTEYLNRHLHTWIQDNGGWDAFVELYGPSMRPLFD

CCc1nn(CCN2CCOCC2)c2c1-c1c(Cl)ccc3c(CCCOc4cccc5cc(F)ccc45)c(C(=O)O)n(c13)Cc1ccccc1COC2 (single isomer, unassigned; enantiomer 1) [Example 52, (−)-3-Chloro-4-ethyl-17-{3-[(6-fluoronaphthalen-1-yl)oxy]propyl}-6-[2-(morpholin-4-yl)ethyl]-6,7,9,14-tetrahydroindolo[7,1-fg]pyrazolo[3,4-d][2,8]benzoxazacycloundecine-16-carboxylic Acid (Enantiomer 1)]
IC50 (MCL1 protein; [5]): 3.68e-07 M
IC50 (BCL-2): > 20000 nM
EC50 (SUDHL10 [1]; [6]): 7.1e-07 M
EC50 (SUDHL5 [2]; [7]): 4.9e-07 M
IC50 (SUDHL5 [3]): 5.2e-07 M
IC50 (SUDHL10 [4]): 8.8e-07 M

Cc1c2c(nn1C)COCc1ccccc1Cn1c(C(=O)O)c(CCCOc3cccc4cc(F)ccc34)c3ccc(Cl)c-2c31 (single isomer, unassigned; enantiomer 2) [Example 50, (+)-3-Chloro-17-{3-[(6-fluoronaphthalen-1-yl)oxy]propyl}-4,5-dimethyl-5,7,9,14-tetrahydroindolo[7,1-fg]pyrazolo[3,4-d][2,8]benzoxazacycloundecine-16-carboxylic acid-N-ethylethanamine Salt (Enantiomer 2)]
IC50 (MCL1 protein; PIxEL [M] (median)): 1.69e-06 M
EC50 (SUDHL10 [1]; [6]): 3.2e-06 M
EC50 (SUDHL5 [2]; [7]): 7.3e-07 M
IC50 (SUDHL5 [3]): 9.3e-07 M
IC50 (SUDHL10 [4]): 2.8e-06 M

CCc1nn(C)c2c1-c1c(Cl)ccc3c(CCCOc4cccc5cc(F)ccc45)c(C(=O)O)n(c13)Cc1ccccc1COC2 (single isomer, unassigned; enantiomer 1) [Example 58, (+)-3-Chloro-4-ethyl-17-{3-[(6-fluoronaphthalen-1-yl)oxy]propyl}-6-methyl-6,7,9,14-tetrahydro-indolo[7,1-fg]pyrazolo[3,4-d][2,8]benzoxazacycloundecine-16-carboxylic acid-N-ethylethanamine Salt (Enantiomer 1)]
IC50 (MCL1 protein; [5]): 8.34e-07 M
IC50 (BCL-2): 10600 nM
EC50 (SUDHL10 [1]; [6]): 2.1e-06 M
EC50 (SUDHL5 [2]; [7]): 8e-07 M
IC50 (SUDHL5 [3]): 8.1e-07 M
IC50 (SUDHL10 [4]): 2.6e-06 M

Cc1c2c(nn1C)COCc1ccccc1Cn1c(C(=O)O)c(CCCOc3cccc4cc(F)ccc34)c3ccc(Cl)c-2c31 (racemic) [Example 48, (rac)-3-Chloro-17-{3-[(6-fluoronaphthalen-1-yl)oxy]propyl}-4,5-dimethyl-5,7,9,14-tetrahydroindolo[7,1-fg]pyrazolo[3,4-d][2,8]benzoxazacycloundecine-16-carboxylic Acid]
EC50 (SUDHL10 [1]; [8]): 3.1e-06 M
EC50 (SUDHL5 [2]; [9]): 1.1e-06 M
IC50 (SUDHL5 [3]; Homo sapiens, SU-DHL-5, 5 h): 1.4e-06 M
IC50 (SUDHL10 [4]; Homo sapiens, SU-DHL10, 5 h): 2.6e-06 M

Cc1c2c(nn1C)COCc1ccccc1Cn1c(C(=O)O)c(CCCOc3cccc4cc(F)ccc34)c3ccc(F)c-2c31 (single isomer, unassigned; enantiomer 1) [Example 65, (−)-3-fluoro-17-{3-[(6-fluoronaphthalen-1-yl)oxy]propyl}-4,5-dimethyl-5,7,9,14-tetrahydroindolo[7,1-fg]pyrazolo[3,4-d][2,8]benzoxazacycloundecine-16-carboxylic acid-N-ethylethanamine Salt (Enantiomer 1)]
IC50 (MCL1 protein; PIxEL [M] (median)): 1.04e-06 M
IC50 (BCL-2): 16900 nM
EC50 (SUDHL10 [1]; [8]): 2.1e-06 M
EC50 (SUDHL5 [2]; [9]): 8.1e-07 M
IC50 (SUDHL5 [3]): 1e-06 M
IC50 (SUDHL10 [4]): 2.1e-06 M

CCc1c2c(nn1C)COCc1ccccc1Cn1c(C(=O)O)c(CCCOc3cccc4cc(F)ccc34)c3ccc(Cl)c-2c31 (single isomer, unassigned; enantiomer 2) [Example 56, (+)-3-Chloro-4-ethyl-17-{3-[(6-fluoronaphthalen-1-yl)oxy]propyl}-5-methyl-5,7,9,14-tetrahydro-indolo[7,1-fg]pyrazolo[3,4-d][2,8]benzoxazacycloundecine-16-carboxylic Acid N-ethylethanamine Salt (Enantiomer 2)]
IC50 (MCL1 protein; PIxEL [M] (median)): 2.35e-06 M
EC50 (SUDHL10 [1]; [10]): 5.4e-06 M
EC50 (SUDHL5 [2]; read-out: Caspase SUDHL5 [M] (median), SUDHL5, 3 hours treatment, Caspase-Glo 3/7): 1.3e-06 M
IC50 (SUDHL5 [3]): 1.6e-06 M
IC50 (SUDHL10 [4]): 3.7e-06 M

Cc1c2c(nn1C)COCc1ncccc1Cn1c(C(=O)O)c(CCCOc3cccc4ccccc34)c3cccc-2c31 (single isomer, unassigned; enantiomer 1) [Example 8, 4,5-Dimethyl-17-[3-(naphthalen-1-yloxy)propyl]-5,7,9,14-tetrahydropyrazolo[4′,3′:9,10]-pyrido[2′,3′:3,4][1,6]oxazacycloundecino[8,7,6-hi]indole-16-carboxylic acid-N-ethylethanamine Salt (Enantiomer 1)]
IC50 (MCL1 protein; PIxEL [M] (median)): 1.82e-05 M
IC50 (BCL-2): > 20000 nM
EC50 (SUDHL10 [1]; [6]): 9.9e-06 M
EC50 (SUDHL5 [2]; [7]): 2.5e-06 M
IC50 (SUDHL5 [3]): 3e-06 M
IC50 (SUDHL10 [4]): 7.2e-06 M

CCNCC.Cc1c2c(nn1C)COCc1ncccc1Cn1c(C(=O)O)c(CCCOc3cccc4ccccc34)c3ccc(Cl)c-2c31 (single isomer, unassigned; enantiomer 1) [Example 43, 3-Chloro-4,5-dimethyl-17-[3-(naphthalen-1-yloxy)propyl]-5,7,9,14-tetrahydropyrazolo-[4′,3′:9,10]pyrido[2′,3′:3,4][1,6]oxazacycloundecino[8,7,6-hi]indole-16-carboxylic acid-N-ethylethanamine Salt (Enantiomer 1)]
IC50 (MCL1 protein; [5]): 2.97e-06 M
IC50 (BCL-2): > 20000 nM
EC50 (SUDHL10 [1]; [6]): 3.7e-06 M
EC50 (SUDHL5 [2]; [7]): 1.2e-06 M
IC50 (SUDHL5 [3]): 1.4e-06 M
IC50 (SUDHL10 [4]): 2.9e-06 M

CCc1c2c(nn1C)COCc1ccccc1Cn1c(C(=O)O)c(CCCOc3cccc4cc(F)ccc34)c3ccc(Cl)c-2c31 (single isomer, unassigned; enantiomer 1) [Example 55, (−)-3-Chloro-4-ethyl-17-{3-[(6-fluoronaphthalen-1-yl)oxy]propyl}-5-methyl-5,7,9,14-tetrahydro-indolo[7,1-fg]pyrazolo[3,4-d][2,8]benzoxazacycloundecine-16-carboxylic Acid N-ethylethanamine Salt (Enantiomer 1)]
IC50 (MCL1 protein; PIxEL [M] (median)): 3.11e-07 M
IC50 (BCL-2): 18000 nM
EC50 (SUDHL10 [1]; [10]): 8.7e-07 M
EC50 (SUDHL5 [2]; Homo sapiens, SU-DHL-5, 3 h, read-out: Caspase SUDHL5 [M] (median), SUDHL5, 3 hours treatment, Caspase-Glo 3/7): 6.6e-07 M
IC50 (SUDHL5 [3]): 6.4e-07 M
IC50 (SUDHL10 [4]): 1.3e-06 M

Cc1c2c(nn1C)COCc1ccccc1Cn1c(C(=O)O)c(CCCOc3cccc4ccccc34)c3ccc(Cl)c-2c31 (single isomer, unassigned; enantiomer 1) [Example 37, (−)-3-Chloro-4,5-dimethyl-17-[3-(naphthalen-1-yloxy)propyl]-5,7,9,14-tetrahydroindolo[7,1-fg]pyrazolo[3,4-d][2,8]benzoxazacycloundecine-16-carboxylic Acid (Enantiomer 1)]
IC50 (MCL1 protein; PIxEL [M] (median)): 1.61e-06 M
IC50 (BCL-2): > 20000 nM
EC50 (SUDHL10 [1]; [6]): 2.5e-06 M
EC50 (SUDHL5 [2]; [7]): 8.4e-07 M
IC50 (SUDHL5 [3]): 8.6e-07 M
IC50 (SUDHL10 [4]): 2.7e-06 M
